Experimental data published in PMC11241344, “TriplEP-CPP: Algorithm for Predicting the Properties of Peptide Sequences” (International Journal of Molecular Sciences, 2024).
Peptide text beside a SMILES is read from it.

How the values were obtained:
[1] = test system: McCoy mouse fibroblast cells; type: cell-based; settings: MTT test, peptide C=0,1 mM (100 µM), 24 h incubation at 37 °C, 5% CO2, absorbance 570/690 nm, mean ± standard deviation (n = 5)
Method: (§1) Since the peptides predicted as CPPs are intended to be used as safe intracellular delivery systems, it is necessary to evaluate the degree of their toxicity to mammalian cells. For this purpose, the compounds investigated were added to human HaCaT keratinocyte cells and McCoy mouse fibroblast cells at a final concentration of 100 μM.
(§2) One of the most important criteria in the search for new penetrating peptides is to ensure the safety of their further use and to assess potential problems and risks. […] Therefore, we incubated human HaCaT keratinocyte and McCoy mouse fibroblast cells with our synthesized compounds at a final concentration of 100 μM for 24 h at 37 °C. […] The use of a fluorescent tag makes it possible to observe the penetration of the peptides as well as their distribution and localization within the cells. For this purpose, the synthesized compounds were conjugated with the fluorescent tag NBD-F and incubated with cells at a final concentration of […] for 4 h at 37 °C.
(§3) McCoy mouse fibroblast cell line (ATCC® CRL-1696™) was grown in a CO2 incubator at 37 °C, 5% CO2 in DMEM medium supplemented with 10% FBS and gentamicin (10 mkg/mL). Human immortalized keratinocyte line HaCaT cells (ATCC® PCS-200-011™) were grown in CO2-incubator at 37 °C, 5% CO2 in RPMI medium supplemented with 10% FBS and gentamicin (10 mkg/mL).
(§4) The cytotoxicity of the peptides was assessed using the MTT-test (3-(4,5-dimethylthiazol-2-yl)2,5-diphenyltetrazolium bromide) according to a standard protocol. McCoy, HaCaT cells were seeded in 96-well plates to a density of 5 × 10^3 cells and 3 × 10^3 cells in each well and incubated at 37 °C, 5% CO2 for 24 h. After 24 h incubation, the cells were washed with Hanks’ balanced salt solution (HBSS). The test peptides were tested at a final concentration of 100 µM in five replicates. Fresh culture medium without added peptides was used as a negative control. […] After adding 100 µL of the test compound to the cells, the samples were incubated at 37 °C, 5% CO2 for 24 h. Next, 10 µL of MTT working solution was added to each well, followed by incubating the cells for 4 h and adding 100 µL of solubilizing buffer to dissolve the formazan crystals. The amount of MTT was measured spectrophotometrically at 570 nm and 690 nm using a Multiskan Ascent microplate photometer (ThermoScientific, Waltham, MA, USA).
(§5) Results were processed using Microsoft Office Excel. During the evaluation of cell viability in the first step, the difference between the values obtained at 570 nm and 690 nm was found for each group of measurements. Then, dose-dependent curves were plotted for each cell line. […] The next step was to recalculate the values as a percentage of the positive control and obtain the mean values and standard deviation for each peptide.

[2] = test system: human HaCaT keratinocyte cells; type: cell-based; settings: MTT test, peptide C=0,1 mM (100 µM), 24 h incubation at 37 °C, 5% CO2, absorbance 570/690 nm, mean ± standard deviation (n = 5)
Method: as §1, §2, §3, §4, §5

What does the source list for `C[C@H](NC(=O)[C@H](C)NC(=O)[C@H](CCCCN)NC(=O)[C@@H](N)CO)C(=O)N[C@@H](CC(=O)O)C(=O)N[C@@H](CCC(=O)O)C(=O)N[C@@H](CO)C(=O)N[C@@H](CCC(=O)O)C(=O)N[C@@H](CCCNC(=N)N)C(=O)O` [CpHM5] (H-SKAADESER-OH)?
Percentage of Viable Cells, McCoy [1]: 96.3 ± 3.4%; Percentage of Viable Cells, HaCaT [2]: 93.8 ± 2.4%

With `CC[C@H](C)[C@H](NC(=O)CN)C(=O)NCC(=O)N[C@@H](C)C(=O)N[C@H](C(=O)N[C@@H](CC(C)C)C(=O)N[C@@H](CCCCN)C(=O)N[C@H](C(=O)N[C@@H](CC(C)C)C(=O)N[C@H](C(=O)N[C@H](C(=O)NCC(=O)N[C@@H](CC(C)C)C(=O)N1CCC[C@H]1C(=O)N[C@@H](C)C(=O)N[C@@H](CC(C)C)C(=O)N[C@H](C(=O)N[C@@H](CO)C(=O)N[C@@H](Cc1c[nH]c2ccccc12)C(=O)N[C@H](C(=O)N[C@@H](CCCCN)C(=O)N[C@@H](CCCNC(=N)N)C(=O)N[C@@H](CCCCN)C(=O)N[C@@H](CCCNC(=N)N)C(=O)N[C@@H](CCC(N)=O)C(=O)N[C@@H](CCC(N)=O)C(N)=O)[C@@H](C)CC)[C@@H](C)CC)[C@@H](C)O)[C@@H](C)O)C(C)C)C(C)C` [melittin, reference compound] as the compound, how does the “Percentage of Viable Cells, McCoy” value [1] read?
Its value is 0.0%.

What about the “Percentage of Viable Cells, HaCaT” value [2] of the same compound?
Its value is 0.1 ± 0.1%.

`CC[C@H](C)[C@H](NC(=O)[C@H](C)N)C(=O)N[C@@H](CCCNC(=N)N)C(=O)N[C@@H](CC(N)=O)C(=O)N[C@@H](CC(=O)O)C(=O)N[C@@H](CCC(=O)O)C(=O)N[C@@H](CCC(=O)O)C(=O)N[C@@H](CC(C)C)C(=O)N[C@@H](CC(N)=O)C(=O)N[C@@H](CCCCN)C(=O)O` [CpHM6] (H-AIRNDEELNK-OH) was tested. Which “Percentage of Viable Cells, McCoy” value [1] did it give?
The value was 95.3 ± 3.4%.

What about the “Percentage of Viable Cells, HaCaT” value [2] of the same compound?
Its value is 92.2 ± 2.9%.

How did the “Percentage of Viable Cells, McCoy” value [1] turn out when `CC(C)C[C@H](NC(=O)[C@H](CCC(N)=O)NC(=O)[C@H](Cc1c[nH]c2ccccc12)NC(=O)[C@H](Cc1c[nH]cn1)NC(=O)[C@H](CCCCN)NC(=O)[C@H](CCCCN)NC(=O)[C@H](CCC(N)=O)NC(=O)[C@H](CCCNC(=N)N)NC(=O)[C@H](Cc1ccc(O)cc1)NC(=O)[C@H](Cc1c[nH]cn1)NC(=O)[C@H](Cc1ccccc1)NC(=O)[C@H](Cc1ccc(O)cc1)NC(=O)[C@H](CCCNC(=N)N)NC(=O)[C@@H](N)CS)C(=O)O` [CpHI4] (H-CRYFHYRQKKHWQL-OH) was run?
Its value is 95.5 ± 3.2%.

What about the “Percentage of Viable Cells, HaCaT” value [2] of the same compound?
The value was 95.3 ± 3.5%.

`CSCC[C@H](NC(=O)[C@H](Cc1c[nH]cn1)NC(=O)[C@H](Cc1c[nH]c2ccccc12)NC(=O)[C@@H](NC(=O)[C@@H](N)CCCCN)[C@@H](C)O)C(=O)N[C@H](C(=O)N[C@@H](Cc1ccc(O)cc1)C(=O)N1CCC[C@H]1C(=O)NCC(=O)NCC(=O)N[C@@H](Cc1ccc(O)cc1)C(=O)N[C@@H](CC(=O)O)C(=O)N[C@@H](Cc1c[nH]cn1)C(=O)N[C@H](C(=O)N[C@@H](CCCNC(=N)N)C(=O)NCC(=O)O)[C@@H](C)O)C(C)C` [CpOH10] (H-KTWHMVYPGGYDHTRG-OH) was tested. Which “Percentage of Viable Cells, McCoy” value [1] did it give?
Its value is 94.4 ± 3.1%.

What about the “Percentage of Viable Cells, HaCaT” value [2] of the same compound?
Its value is 94.6 ± 3.3%.

Which results are given for `CC(C)[C@H](NC(=O)[C@@H](N)[C@@H](C)O)C(=O)N[C@@H](C)C(=O)N[C@@H](CC(N)=O)C(=O)N[C@@H](Cc1ccccc1)C(=O)N[C@@H](CCCCN)C(=O)N[C@H](C(=O)N[C@@H](CC(N)=O)C(=O)N[C@@H](CO)C(=O)N[C@@H](C)C(=O)N[C@@H](C)C(=O)N1CCC[C@H]1C(=O)N1CCC[C@H]1C(=O)N[C@@H](C)C(=O)N[C@@H](C)C(=O)N[C@@H](CCC(=O)O)C(=O)N1CCC[C@H]1C(=O)N1CCC[C@H]1C(=O)N[C@@H](CCCNC(=N)N)C(=O)O)[C@@H](C)O` [CpRE13] (H-TVANFKTNSAAPPAAEPPR-OH)?
Percentage of Viable Cells, McCoy [1]: 89.7 ± 3.3%; Percentage of Viable Cells, HaCaT [2]: 90.6 ± 3.6%

What does the source list for `CC[C@H](C)[C@H](NC(=O)[C@H](CCC(N)=O)NC(=O)[C@H](Cc1c[nH]c2ccccc12)NC(=O)[C@H](CCC(N)=O)NC(=O)[C@H](Cc1ccc(O)cc1)NC(=O)[C@@H](N)CO)C(=O)N[C@@H](Cc1ccccc1)C(=O)N[C@@H](Cc1ccc(O)cc1)C(=O)N[C@@H](CCCNC(=N)N)C(=O)N[C@@H](CO)C(=O)N[C@@H](CC(C)C)C(=O)N[C@@H](CC(=O)O)C(=O)NCC(=O)N[C@@H](CO)C(=O)NCC(=O)N[C@@H](C)C(=O)N[C@@H](CCCCN)C(=O)N[C@@H](CCC(=O)O)C(=O)O` [CpRE12] (H-SYQWQIFYRSLDGSGAKE-OH)?
Percentage of Viable Cells, McCoy [1]: 87.6 ± 4.6%; Percentage of Viable Cells, HaCaT [2]: 84.4 ± 4.0%
